{"source": "patent US4291033A", "about": "“Oxoimidazoquinoxalines” (Roussel Uclaf, priority 1979, dated 1981)", "test_system": "cutaneous anaphylaxis", "assay": "Passive cutaneous anaphylaxis (PCA) in rats", "format": "in vivo, male rats", "conditions": "Rattus norvegicus", "text": "Passive cutaneous anaphylaxis (PCA) in rats\nCutaneous anaphylaxis was induced in groups of 7 male rats weighing 180 to 220 grams by intradermal (ID) sensitization with antiserum followed, three days later, by systemic challenge with antigen. Evans blue dye injected with the antigen is used as a marker to assess the severity of the local response. Anti-allergic drugs inhibit this reaction and this method has been described by OVARY (1962) in \"Passive Cutaneous Anaphylaxis in Allergology\" 258-367 Ed. Brown; Pergamon Press.\nPreparation of Antigen (or Sensitization)\n(Alum-precipitated ovalbumen)\n1. Wash 120 grams of Al(OH)3 gel in 140 ml of saline (use of a macerator facilitates mixing).\n2. Centrifuge at 3,000 r.p.m. for about 10 minutes.\n3. Resuspend the precipitate with 300 ml of albumen egg powder (1.3 mg/ml) in saline and allow to stand for 30 minutes.\n4. Centrifuge at 3,000 r.p.m. for 10 minutes.\n5. Weigh the wet precipitate and to each gram weight add 1 ml of saline. Store in frigerator.\n(Quantity sufficient for 60 rats for a 3 day sensitization program).\nPreparation of Antiserum (i.e. anti-ovalbumen)\n1. 1 ml of the alum-precipitated ovalbumen was injected subcutaneously into 180-200 gram rats on days 0,2 and 4.\n2. The rats were bled on day 14 either by cardiac puncture or via the dorsal abdominal aorta.\n3. Equal quantities of serum from each animal were pooled and thoroughly mixed.\n4. 2 ml of aliquots were stored at -20° C. in plastic tubes.\nThe antiserum for sensitization was diluted so that an ID injection of 0.1 ml into control animals gave an average score of a single spot of between 2.0-3.5 using a 5 point scoring system (0,1,2,3,4)\n(A) SENSITIZATION: Rats are anaesthetized with Nembutal (40-60 mg/kg i.p.) and then sensitized by four ID injections (0.1 ml each) on their shaved backs. The animals were then left for a period of three days to develop sensitization.\n(B) […]: The sensitized rats were anaesthetised and challenged orally or intravenously via the superficial penile vein with 1 ml of an antigen/Evans blue mixture (1 mg albumen egg powder in 0.5 ml saline plus 0.5 ml of 1% Evans blue). The injections were speeded up by using an automatic 1 ml self filling glass syringe. The \"challenged\" rats were killed after 30 minutes, (usually pithed) and their skin on the dorsal surface was removed. The degree and area of blueing, proportional to the anaphylactic reaction, was assessed on a five point scoring system.\n1. Total scores for sites 1,2,3 and 4=X\n2. Mean value of X for each group=X\n3. X t=X for test group; X c=X for control group\n4. % inhibition=(X c-X t)/X c×100/1"}
{"smiles": "O=C(O)c1cn2c(n1)c(=O)[nH]c1ccccc12", "note": "[Example 2, 4,5-dihydro-4-oxoimidazo-[1,2-a]-quinoxaline-2-carboxylic acid]", "values": [{"measurement": "ED50", "setting": "iv", "result": 0.16, "unit": "mg/kg"}, {"measurement": "ED50", "setting": "po", "result": 2, "unit": "mg/kg"}]}
{"smiles": "CCCn1c(=O)c2nc(C(=O)O)cn2c2ccccc21", "note": "[Example 8, 4,5-dihydro-5-propyl-4-oxoimidazo-[1,2-a]-quinoxaline-2-carboxylic acid]", "values": [{"measurement": "ED50", "setting": "iv", "result": 0.01, "unit": "mg/kg"}, {"measurement": "ED50", "setting": "po", "result": 0.24, "unit": "mg/kg"}]}
{"smiles": "CCOC(=O)c1cn2c(n1)c(=O)n(CC)c1ccccc12", "note": "[Example 5, Ethyl 4,5-dihydro-5-ethyl-4-oxoimidazo-[1,2-a]-quinoxaline-2-carboxylate]", "values": [{"measurement": "ED50", "setting": "po", "result": 0.16, "unit": "mg/kg"}]}
{"smiles": "CCn1c(=O)c2nc(C(=O)O)cn2c2ccccc21", "note": "[Example 6, 4,5-dihydro-5-ethyl-4-oxoimidazo-[1,2-a]-quinoxaline-2-carboxylic acid]", "values": [{"measurement": "ED50", "setting": "iv", "result": 0.01, "unit": "mg/kg"}, {"measurement": "ED50", "setting": "po", "result": 0.45, "unit": "mg/kg"}]}
{"smiles": "Cn1c(=O)c2nc(C(=O)O)cn2c2ccccc21", "note": "[Example 4, 4,5-dihydro-5-methyl-4-oxoimidazo-[1,2-a]-quinoxaline-2-carboxylic acid]", "values": [{"measurement": "ED50", "setting": "iv", "result": 0.031, "unit": "mg/kg"}, {"measurement": "ED50", "setting": "po", "result": 1.28, "unit": "mg/kg"}]}
{"smiles": "CCCCn1c(=O)c2nc(C(=O)O)cn2c2ccccc21", "note": "[Example 10, 4,5-dihydro-5-butyl-4-oxoimidazo-[1,2-a]-quinoxaline-2-carboxylic acid]", "values": [{"measurement": "ED50", "setting": "iv", "result": 0.023, "unit": "mg/kg"}, {"measurement": "ED50", "setting": "po", "result": 0.59, "unit": "mg/kg"}]}
